Data set [1] has as its system Puccinia recondita f. sp. Tritici. In words: Puccinia recondita f. sp. tritici / wheat / leaf disc preventative (brown rust). The conditions noted are these: foliar, 200 ppm in the applied formulation, wheat leaf segments cv. Kanzler, inoculated 1 day after application, compared to untreated, assessed 7 to 9 days after application, read-out: disease control. Format: in vivo. The procedure, abridged:
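Wheat leaf segments (cv. Kanzler) on water agar were sprayed with test compound (DMSO stock diluted in 0.025% Tween20/water), then spore-inoculated 1 day later. Incubation at 19° C., 75% rh, 12 h light/12 h dark; percent disease control versus untreated segments scored 7 to 9 days after application. Tested at 200 ppm.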

Data set [2] deals with Glomerella lagenarium (Colletotrichum lagenarium). The data set is described as follows: Glomerella lagenarium (Colletotrichum lagenarium) liquid culture / cucumber / preventative (anthracnose). Type of data set: cell-based. Particulars: Colletotrichum orbiculare; 20 ppm in the applied formulation; conidia in PDB nutrient broth, 24° C.; 3 to 4 days after application; compared to untreated; read-out: disease control (inhibition of growth measured photometrically). The procedure, abridged: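 Cryostored conidia in potato dextrose broth added to compound diluted from DMSO solution, 96-well format. Plates incubated at 24 °C. Growth inhibition read photometrically 3 to 4 days after application, as percent activity versus untreated check.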

In data set [3] the test system is Puccinia recondita f. sp. Tritici. In words: Puccinia recondita f. sp. tritici / wheat / leaf disc curative (brown rust). Type of data set: in vivo. Particulars: foliar, 200 ppm in the applied formulation, wheat leaf segments cv. Kanzler, applied 1 day after inoculation, compared to untreated, assessed 6 to 8 days after application, read-out: disease control. The procedure, abridged:
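Spray application came one day after spore inoculation of Kanzler wheat leaf segments kept on agar. Conditions: 19° C, 75% relative humidity, dark before treatment and 12 h light/12 h dark after. Efficacy = % disease control compared with untreated, 6–8 days post-application.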

Turning to `CN(C)S(=O)(=O)N(Cc1ccc(-c2noc(C(F)(F)F)n2)cc1)C1CC1` [Compound 1.6, N-(dimethylsulfamoyl)-N-[[4-[5-(trifluoromethyl)-1,2,4-oxadiazol-3-yl]phenyl]methyl] cyclopropanamine], the melting point was in the range of 82 to 84 °C. The pest or weed control at 200 ppm in data set [1] was not below 80%. In addition, the inhibition at 20 ppm in data set [2] is not below 80%.
With `CON(Cc1ccc(-c2noc(C(F)(F)F)n2)cc1)S(=O)(=O)C1CC1` [Compound 1.9, N-methoxy-N-[[4-[5-(trifluoromethyl)-1,2,4-oxadiazol-3-yl]phenyl]methyl] cyclopropanesulfonamide], the melting point lay within 73 to 75 °C. Besides, the inhibition at 20 ppm in data set [2] is not below 80%.
Taken in the same sequence, the figures for `CCCNS(=O)(=O)N(Cc1ccc(-c2noc(C(F)(F)F)n2)cc1)C1CC1` [Compound 1.21, 3-[4-[[cyclopropyl (propylsulfamoyl)amino]methyl]phenyl]-5-(trifluoromethyl)-1,2,4-oxadiazole] were 70 to 73 °C and not below 80%.
`COCCS(=O)(=O)NCc1ccc(-c2noc(C(F)(F)F)n2)cc1F` [Compound 2.34, N-[[2-fluoro-4-[5-(trifluoromethyl)-1,2,4-oxadiazol-3-yl]phenyl]methyl]-2-methoxy-ethanesulfon-amide]: the pest or weed control at 200 ppm in data set [1] and in data set [3] was not below 80% throughout. Moreover, the inhibition at 20 ppm in data set [2] was not below 80%.
Turning to `C/C=C/S(=O)(=O)NCc1ccc(-c2noc(C(F)(F)F)n2)cc1F` [Compound 2.36, (E)-N-[[2-fluoro-4-[5-(trifluoromethyl)-1,2,4-oxadiazol-3-yl]phenyl]methyl] prop-1-ene-1-sulfonamide], the pest or weed control at 200 ppm in data set [1] and in data set [3] was not below 80% throughout. For the same compound, the inhibition at 20 ppm in data set [2] is not below 80%.
With `O=S(=O)(NCc1ccc(-c2noc(C(F)(F)F)n2)cc1)c1ccc(F)cc1F` [Compound 3.5, 2,4-difluoro-N-[[4-[5-(trifluoromethyl)-1,2,4-oxadiazol-3-yl]phenyl]methyl] benzenesulfonamide], the melting point fell in the range of 112 to 115 °C. Besides, in data set [1], the pest or weed control at 200 ppm was not below 80%.
Taken in the same sequence, the figures for `O=S(=O)(Cc1ccc(Cl)cc1F)NCc1ccc(-c2noc(C(F)(F)F)n2)cc1` [Compound 3.6, 1-(4-chloro-2-fluoro-phenyl)-N-[[4-[5-(trifluoromethyl)-1,2,4-oxadiazol-3-yl]phenyl]methyl] methanesulfonamide] were 140 to 144 °C and not below 80%.
`Cn1ccc(S(=O)(=O)NCc2ccc(-c3noc(C(F)(F)F)n3)cc2)n1` [Compound 3.10, 1-methyl-N-[[4-[5-(trifluoromethyl)-1,2,4-oxadiazol-3-yl]phenyl]methyl] pyrazole-3-sulfonamide]: the pest or weed control at 200 ppm in data set [1] and in data set [3] was not below 80% throughout. Further, the inhibition at 20 ppm in data set [2] was not below 80%.
With `Cn1ccc(S(=O)(=O)NCc2ccc(-c3noc(C(F)(F)F)n3)c(F)c2)n1` [Compound 3.14, N-[[3-fluoro-4-[5-(trifluoromethyl)-1,2,4-oxadiazol-3-yl]phenyl]methyl]-1-methyl-pyrazole-3-sulfonamide], the pest or weed control at 200 ppm in data set [1] and in data set [3] was not below 80% in each case. Moreover, the inhibition at 20 ppm in data set [2] is not below 80%.
For `O=S(=O)(NCc1ccc(-c2noc(C(F)(F)F)n2)c(F)c1)N1CCCC1` [Compound 3.17, N-[[3-fluoro-4-[5-(trifluoromethyl)-1,2,4-oxadiazol-3-yl]phenyl]methyl] pyrrolidine-1-sulfonamide], the pest or weed control at 200 ppm in data set [1] and in data set [3] was not below 80% in each case. In addition, the inhibition at 20 ppm in data set [2] was not below 80%.
`O=S(=O)(NCc1ccc(-c2noc(C(F)(F)F)n2)c(F)c1)C1CC1` [Compound 3.19, N-[[3-fluoro-4-[5-(trifluoromethyl)-1,2,4-oxadiazol-3-yl]phenyl]methyl] cyclopropanesulfon-amide]: the pest or weed control at 200 ppm in data set [1] and in data set [3] was not below 80% throughout. Besides, in data set [2], the inhibition at 20 ppm is not below 80%.
Consider `O=S(=O)(CC1CCOC1)NCc1ccc(-c2noc(C(F)(F)F)n2)c(F)c1` (stereo not shown) [Compound 3.20, N-[[3-fluoro-4-[5-(trifluoromethyl)-1,2,4-oxadiazol-3-yl]phenyl]methyl]-1-tetrahydrofuran-3-yl-methanesulfonamide], for which the pest or weed control at 200 ppm in data set [1] and in data set [3] was not below 80% each time. The inhibition at 20 ppm in data set [2] was not below 80%.
For `O=S(=O)(CC1CC1)NCc1ccc(-c2noc(C(F)(F)F)n2)c(F)c1` [Compound 3.21, 1-cyclopropyl-N-[[3-fluoro-4-[5-(trifluoromethyl)-1,2,4-oxadiazol-3-yl]phenyl]methyl] methanesulfonamide], the pest or weed control at 200 ppm in data set [1] and in data set [3] was not below 80% throughout. In addition, the inhibition at 20 ppm in data set [2] is not below 80%.
Consider `Cn1ccc(S(=O)(=O)NCc2ccc(-c3noc(C(F)(F)F)n3)cc2F)n1` [Compound 3.24, N-[[2-fluoro-4-[5-(trifluoromethyl)-1,2,4-oxadiazol-3-yl]phenyl]methyl]-1-methyl-pyrazole-3-sulfonamide], for which the pest or weed control at 200 ppm in data set [1] and in data set [3] was not below 80% throughout. Further, in data set [2], the inhibition at 20 ppm is not below 80%.
As to `O=S(=O)(NCc1ccc(-c2noc(C(F)(F)F)n2)cc1F)N1CCCC1` [Compound 3.27, N-[[2-fluoro-4-[5-(trifluoromethyl)-1,2,4-oxadiazol-3-yl]phenyl]methyl] pyrrolidine-1-sulfonamide], the pest or weed control at 200 ppm in data set [1] and in data set [3] was not below 80% in each case. The inhibition at 20 ppm in data set [2] is not below 80%.
Consider `O=S(=O)(NCc1ccc(-c2noc(C(F)(F)F)n2)cc1F)C1CC1` [Compound 3.29, N-[[2-fluoro-4-[5-(trifluoromethyl)-1,2,4-oxadiazol-3-yl]phenyl]methyl] cyclopropanesulfon-amide], for which the pest or weed control at 200 ppm in data set [1] and in data set [3] was not below 80% each time. The inhibition at 20 ppm in data set [2] is not below 80%.
For the compound `O=S(=O)(CC1CCOC1)NCc1ccc(-c2noc(C(F)(F)F)n2)cc1F` (stereo not shown) [Compound 3.30, N-[[2-fluoro-4-[5-(trifluoromethyl)-1,2,4-oxadiazol-3-yl]phenyl]methyl]-1-tetrahydrofuran-3-yl-methanesulfonamide], the pest or weed control at 200 ppm in data set [1] and in data set [3] was not below 80% throughout. Also, the inhibition at 20 ppm in data set [2] was not below 80%.
For `O=S(=O)(CC1CC1)NCc1ccc(-c2noc(C(F)(F)F)n2)cc1F` [Compound 3.31, 1-cyclopropyl-N-[[2-fluoro-4-[5-(trifluoromethyl)-1,2,4-oxadiazol-3-yl]phenyl]methyl] methanesulfonamide], the pest or weed control at 200 ppm in data set [1] and in data set [3] was not below 80% throughout. In addition, the inhibition at 20 ppm in data set [2] was not below 80%.
`O=S(=O)(Cc1ccccc1)Nc1ccc(-c2noc(C(F)(F)F)n2)cc1` [Compound 3.34, 1-phenyl-N-[4-[5-(trifluoromethyl)-1,2,4-oxadiazol-3-yl]phenyl]methane-sulfonamide] had a melting point of 125 to 135 °C. Moreover, the inhibition at 20 ppm in data set [2] was not below 80%.

Source of the values: patent US20210101874A1, “MICROBIOCIDAL OXADIAZOLE DERIVATIVES” (SYNGENTA PARTICIPATIONS AG, priority 2017, published 2021).
